According to US20230233577A1, “17Beta-ESTRADIOL/VITAMIN C MOLECULAR COMPLEX, PREPARATION METHOD, AND USE THEREOF” (ZHEJIANG MEDICINE CO., LTD.XINCHANG PHARMACEUTICAL FACTORY, priority 2020, published 2023):
Marks after values point to notes of the source that are not given here.

Experiments:
Type in all cases: in vivo, ICR mice
[1] = tested on: ovariectomized female mice; assay: Trabecular bone density in ovariectomized female mice (CT of left femur); conditions: oral, 4 weeks, n = 11
[2] = tested on: ovariectomized female mice; assay: Femoral dry weight in ovariectomized female mice; conditions: oral, 4 weeks, n = 11
[3] = tested on: ovariectomized female mice; assay: Femoral ash weight in ovariectomized female mice; conditions: oral, 4 weeks, n = 11
[4] = tested on: ovariectomized female mice; assay: Femoral mineral content (BMC, ash weight/dry weight) in ovariectomized female mice; conditions: ratio femoral ash weight/dry weight, oral, 4 weeks, n = 11
[5] = tested on: ovariectomized female mice; assay: Femoral length and ratio of femoral ash weight to femoral length in ovariectomized female mice; conditions: oral, 4 weeks, n = 11
[6] = tested on: ovariectomized female mice; assay: Femoral calcium content in ovariectomized female mice (OCPC method); conditions: oral, 4 weeks, n = 11
[7] = tested on: ovariectomized female mice; assay: Uterine weight (endometrial hyperplasia side effect) in ovariectomized female mice; conditions: for Uterine weight (mean ± SD): ovariectomized mice, oral, n = 11
[8] = tested on: ovariectomized female mice; assay: Pathological sections of oviduct walls, endometria and uterine glands of ovariectomized female mice
Protocol: Pathological sections of oviduct walls, endometria, and uterine glands of ovariectomized female mice were prepared to evaluate the influence of the complex on the oviduct walls, endometria, and uterine glands of the ovariectomized mice.

[9] = tested on: ovariectomized female mice; assay: Tail bleeding time (thrombosis side effect) in ovariectomized female mice; conditions: for Bleeding time (tail, mean ± SD): ovariectomized mice, oral, 30 min after last administration, n = 11
[10] = at both doses of 2.3 μmol/kg/day and 0.23 μmol/kg/day
[11] = ovariectomized mouse treated at 2.3 μmol/kg/day
[12] = summary of pathological sections FIG. 3A to FIG. 8E

Thickness of endometrium (pathological section) [8, 11]: 23.08 μm
Thickness of oviduct wall (pathological section) [8, 11]: 152.11 μm
Lesions of uterine glands (in words) [8, 12]: could cause lesions of uterine glands
SMILES: C[C@]12CC[C@@H]3c4ccc(O)cc4CC[C@H]3[C@@H]1CC[C@@H]2O [17β-estradiol]
Trabecular bone density (mean ± SD) ([1]; dose 0.23 μmol/kg/day): 595.35 ± 30.47^d mg/cm^3
Trabecular bone density (mean ± SD) ([1]; dose 2.3 μmol/kg/day): 748.57 ± 33.37^a mg/cm^3
Femoral dry weight (mean ± SD) ([2]; dose 0.23 μmol/kg/day): 49.08 ± 6.02^b mg
Femoral dry weight (mean ± SD) ([2]; dose 2.3 μmol/kg/day): 54.42 ± 2.96^a mg
Femoral ash weight (mean ± SD) ([3]; dose 0.23 μmol/kg/day): 29.08 ± 5.42^b mg
Femoral ash weight (mean ± SD) ([3]; dose 2.3 μmol/kg/day): 33.37 ± 3.21^a mg
BMC (femoral mineral content, mean ± SD) ([4]; dose 0.23 μmol/kg/day): 0.560 ± 0.041 mg/mg
BMC (femoral mineral content, mean ± SD) ([4]; dose 2.3 μmol/kg/day): 0.620 ± 0.020^a mg/mg
Ash weight/length (mean ± SD) ([5]; dose 0.23 μmol/kg/day): 1.72 ± 0.22 mg/mm
Ash weight/length (mean ± SD) ([5]; dose 2.3 μmol/kg/day): 2.02 ± 0.20^a mg/mm
Femoral calcium content (mean ± SD) ([6]; dose 0.23 μmol/kg/day): 23.34 ± 0.70%
Femoral calcium content (mean ± SD) ([6]; dose 2.3 μmol/kg/day): 24.57 ± 1.85^a %
Effect on uterine weight (in words) [7, 10]: significantly increased the uterine weight
Uterine weight (mean ± SD) ([7]; dose 0.23 μmol/kg): 0.200 ± 0.041^a g
Uterine weight (mean ± SD) ([7]; dose 2.3 μmol/kg): 0.207 ± 0.045^a g
Uterine gland pathology (in words) [8, 11]: the density of the tissue around the uterine gland is significantly reduced
Thickening of endometria and oviduct walls (in words) [8, 12]: could induce the thickening of endometria and oviduct walls
Effect on tail bleeding time (in words) [9, 10]: significantly shortened the tail bleeding time
Bleeding time (tail, mean ± SD) ([9]; dose 0.23 μmol/kg/day): 640.6 ± 189.6^a s
Bleeding time (tail, mean ± SD) ([9]; dose 2.3 μmol/kg/day): 659.1 ± 203.8^a s
